Calls of active or inactive are those of the source. No rule for the calls is given here. *1 amine or outer side, *2 acyl side, *3 side chain or, on linkers, in order; H or OH if unused. Where a SMILES comes first, the peptide text is derived from it. Bridges are numbered along the chain shown (N, C = ends). Roman numbers before positions name the chains, in order. [ ]: non-standard residue; d: D form. Actinocin(9to1) = Cc1c2oc3c(C)ccc(C(=O)[*:1])c3nc-2c(C(=O)[*:2])c(N)c1=O; NMeV = CN[C@H](C(=O)O)C(C)C; Sar = CNCC(=O)O
System: C2C12 WNT3A-conditioned, nuclear beta-catenin
Experiment: activation of intranuclear CTNNB1 in the C2C12 line, dose-response, cell-based, Wnt-3a conditioned medium, half-maximal inhibitory concentration (AID 1117325)

| SMILES | IC50 |
| --- | --- |
| CC(=O)O[C@@]12CO[C@@H]1C[C@H](O)[C@@]1(C)C(=O)[C@H](O)C3=C(C)[C@@H](OC(=O)[C@H](O)[C@@H](NC(=O)OC(C)(C)C)c4ccccc4)C[C@@](O)([C@@H](OC(=O)c4ccccc4)[C@H]21)C3(C)C | 0.0652 µM |
| COc1cccc2c1C(=O)c1c(O)c3c(c(O)c1C2=O)C[C@@](O)(C(=O)CO)CC3OC1CC(N2CCOC(OC)C2)C(O)C(C)O1 (some centres not stated) | 0.0135 µM |
| COC(=O)[C@H]1[C@H]2C[C@@H]3c4[nH]c5cc(OC)ccc5c4CCN3C[C@H]2C[C@@H](OC(=O)/C=C/c2ccc(O)c(OC)c2)[C@@H]1OC | > 20 µM (inactive) |
| C#C[C@]1(O)CC[C@H]2[C@@H]3CCc4cc(OC5CCCC5)ccc4[C@H]3CC[C@@]21C | > 20 µM (inactive) |
| COc1cc(C=C2CCC/C(=C\c3ccc(O)c(OC)c3)C2=O)ccc1O | 5.04 µM (inactive) |
| Cc1cc(O)c2ccccc2c1O | 4.39 µM |
| COc1ccc2cc1Oc1ccc(cc1)C[C@H]1c3c(cc4c(c3Oc3cc5c(cc3OC)CCN(C)[C@@H]5C2)OCO4)CCN1C | 5.63 µM (inactive) |
| CCc1nc(N)nc(N)c1-c1ccc(Cl)cc1 | 0.86 µM |
| O=c1c(-c2ccccc2)c1-c1ccccc1 | > 20 µM (inactive) |
| CCC1=C[C@@H]2CN(C1)Cc1c([nH]c3ccccc13)[C@@](C(=O)OC)(c1cc3c(cc1OC)N(C)[C@H]1[C@@](O)(C(=O)OC)[C@H](OC(C)=O)[C@]4(CC)C=CCN5CC[C@]31[C@@H]54)C2 | 0.0089 µM |
| CCCCc1ccc2nc(NC(=O)OC)[nH]c2c1 | 0.0336 µM |
| C[n+]1c2cc(N)ccc2cc2ccc(N)cc21 (tested in a mixture with another compound) | > 20 µM (inactive) |
| Cc1c2oc3c(C)ccc(C(=O)N[C@@H]4C(=O)N[C@H](C(C)C)C(=O)N5CCC[C@H]5C(=O)N(C)CC(=O)N(C)[C@@H](C(C)C)C(=O)O[C@@H]4C)c3nc-2c(C(=O)N[C@@H]2C(=O)N[C@H](C(C)C)C(=O)N3CCC[C@H]3C(=O)N(C)CC(=O)N(C)[C@@H](C(C)C)C(=O)O[C@@H]2C)c(N)c1=O (I: T[dV]P[Sar][NMeV] / II: T[dV]P[Sar][NMeV]; ester I:1-I:C, II:1-II:C; linker I:N-II:N via Actinocin(9to1)) | 0.037 µM |
| CCCCCCCCCCCCCC[N+](C)(C)Cc1ccccc1 | > 20 µM (inactive) |
| Cc1cc(C2CCCCC2)n(O)c(=O)c1 | > 20 µM (inactive) |
| COc1cc([C@@H]2c3cc4c(cc3[C@@H](O[C@@H]3O[C@@H]5CO[C@@H](C)O[C@@H]5[C@H](O)[C@@H]3O)[C@H]3COC(=O)[C@H]23)OCO4)cc(OC)c1O | > 20 µM (inactive) |
| O=C1OC2(c3cc(Br)c(O)cc3Oc3c2cc(Br)c(O)[c]3[Hg])c2ccccc21 (configuration not stated) | 16.9 µM (inactive) |
| CN(C)C(=S)SSC(=S)N(C)C | > 20 µM (inactive) |
| COC(=O)Nc1nc2ccc(C(=O)c3cccs3)cc2[nH]1 | 0.235 µM |
| C=C(C)[C@H]1Cc2c(ccc3c2O[C@@H]2COc4cc(OC)c(OC)cc4[C@@H]2C3=O)O1 | 2.99 µM |
| Cc1ccc([N+](=O)[O-])[c]2c1[O][Hg]2 | 1.51 µM |

| SMILES | IC50 |
| --- | --- |
| O[C@@H](c1cc(C(F)(F)F)nc2c(C(F)(F)F)cccc12)[C@H]1CCCCN1 | > 20 µM (inactive) |
| O=[N+]([O-])c1ccc(O)c2ncccc12 | > 20 µM (inactive) |
| COC(=O)Nc1nc2ccc(S(=O)c3ccccc3)cc2[nH]1 (configuration not stated) | 0.468 µM |
| Cc1cc(CC(C)CC(C)(C)C)n(O)c(=O)c1 (configuration not stated) | 0.591 µM |
| Oc1c(I)cc(Cl)c2cccnc12 | > 20 µM (inactive) |
| Cc1cc2c(C(C)C)c(O)c(O)c(C=O)c2c(O)c1-c1c(C)cc2c(C(C)C)c(O)c(O)c(C=O)c2c1O | 3.49 µM |
| Clc1cc(Cl)c(OCC#CI)cc1Cl | > 20 µM (inactive) |
| Cc1cc(=O)c2c(O)c3c(O)cc(=O)c4c3c3c(cc(O)c1c23)C(C)(C)C=4O | 1.07 µM |
| CCCN(CCC)C(=O)C(CCC(=O)OCCCN1CCN(CCOC(=O)Cc2c(C)n(C(=O)c3ccc(Cl)cc3)c3ccc(OC)cc23)CC1)NC(=O)c1ccccc1 (configuration not stated) | > 20 µM (inactive) |
| NC(=NCCCCCCN=C(N)/N=C(\N)Nc1ccc(Cl)cc1)/N=C(\N)Nc1ccc(Cl)cc1 | > 20 µM (inactive) |
| O=[N+]([O-])C(Br)(CO)CO | > 20 µM (inactive) |
| Oc1c(Cl)cc(Cl)cc1Sc1cc(Cl)cc(Cl)c1O | > 20 µM (inactive) |
| O=C1C2CC=CCC2C(=O)N1SC(Cl)(Cl)Cl (configuration not stated) | > 20 µM (inactive) |
| COc1cc(NCc2ccc3nc(N)nc(N)c3c2C)cc(OC)c1OC | 0.0033 µM |
| O=C1C(I)=CC(=C(c2cc(I)c(O)c(I)c2)c2ccccc2C(=O)O)C=C1I | > 20 µM (inactive) |
| Cc1ccccc1C(=O)Nc1ccc(C(=O)N2CCCC(N(C)C)c3ccccc32)cc1 (configuration not stated) | 4.56 µM |
| CCN(CC)CCNc1ccc(CO)c2sc3ccccc3c(=O)c12 | > 20 µM (inactive) |
| COc1cc([C@@H]2c3cc4c(cc3[C@H](O)[C@H]3COC(=O)[C@H]23)OCO4)cc(OC)c1OC | 0.0131 µM |
| Nc1ccc2cc3ccc(N)cc3nc2c1 | 5.99 µM (inactive) |
| CC(=O)Oc1ccc(C2(c3ccc(OC(C)=O)cc3)Oc3ccccc3NC2=O)cc1 | > 20 µM (inactive) |
| COCc1c(C(C)C)nc(C(C)C)c(/C=C/[C@@H](O)C[C@@H](O)CC(=O)O)c1-c1ccc(F)cc1 | 6.67 µM (inactive) |

From PubChem BioAssay AID1117325 (Cheminformatics & Chemogenomics Research Group (CCRG), …, 2015)
